Experimental data: paper PMC6646405, “A quantitative, high-throughput method identifies protein–glycan interactions via mass spectrometry” (Communications Biology, 2019)

System: family 51 carbohydrate binding module (CBM51)
Assay: CUPRA library screening and affinity, CBM51
Details: 25uM CBM51; mean of 4 DIi values, FigS3a
Experimental: Unless otherwise noted, the measurements were performed at 25 °C. […] We identified specific ligands from the depletion index (DIi, Eq. 1) – the change in the fractional abundance (Fi, Eq. 2) ratio of ligand i-bound and free ^UniPproxy ions upon addition of GBP. Prior to calculating Fi, we treated each mass spectrum with the Sliding Window Adducts Removal Method (SWARM)[18] to remove contributions to the abundance of ^UniPproxy -OS^mod complex ions from adducts, formed by the ESI process, of neighbouring complex ions (Supplementary Fig. 2). Shown in Fig. 2a is a summary of the DIi measured by CUPRA screening of the 66-component library against S4 (50 μM). As expected, the average DIi for this negative control is close to 1.0 (0.99 ± 0.03). In contrast, CUPRA screening against the positive controls produced decreases in DIi for one or more of the library components. […] Application of CUPRA to human CD22, part of an important class of Neu5Ac-binding GBPs implicated in both innate and adaptive immunity, correctly identified HMO08 as a ligand (Supplementary Fig. 4a). CUPRA screening of MAA at high concentration (50 μM) identified HMO03 and GA06 as ligands. […]
Using SWARM-treated mass spectra, DIi was calculated for each ligand from the ratio of the fractional abundances (Fi) of ligand (i)-bound and free ^UniPproxy ions in the presence (+GBP) and absence (-GBP) of GBP, Eqs. […]

CC(=O)N[C@H]1[C@H](O[C@@H]2[C@H](O[C@]3(C(=O)O)C[C@H](O)[C@@H](NC(C)=O)[C@H]([C@H](O)[C@@H](CO)O[C@]4(C(=O)O)C[C@H](O)[C@@H](NC(C)=O)[C@H]([C@H](O)[C@H](O)CO)O4)O3)[C@@H](O)[C@H](O[C@H]3[C@H](O)[C@@H](O)[C@H](N(CCOCCOCCNC(=O)[C@H](Cc4ccccc4)NC(=O)[C@H](Cc4ccccc4)NC(=O)CCCC(=O)NCCc4ccc(S(N)(=O)=O)cc4)C(C)=O)O[C@@H]3CO)O[C@@H]2CO)O[C@H](CO)[C@H](O)[C@@H]1O [GA10, GalNAcβ1-4(Neu5Acα2-8 Neu5Acα2-3)Galβ1-4Glc-CL]
average DI: 0.9576
